Results reported in patent US20070154393A1, “Bioassay for volatile low molecular weight insecticides and methods of use” (priority 2005, published 2007).
Where two headings read alike, the source gives them in different places.

Legend:
[1] = system: Rd1 (Rdl-R) strain of Drosophila (GABA-gated chloride channel point mutation); type: in vivo, Drosophila melanogaster; settings: Table 2; Rdl-R, 24 hr
Text: Four Drosophila strains were used, all obtained from the Bloomington Drosophila Stock Center (Indiana University; Bloomington, Ind.). The Canton-S strain was used as the insecticide-susceptible standard. The Hikone-R strain is metabolically-resistant with elevated cytochrome P450 levels (Waters et al., 1984; Sundseth et al., 1989; Le Goff et al., 2003; Festucci-Buselli et al., 2005). Hikone-R is resistant to a number of insecticides, including malathion, DDT and neonicotinoids (Sundseth et al., 1989; Daborn et al., 2001). Two resistant neurological-mutant strains were also tested. […] Flies were reared in 100-ml vials capped with acetate plugs (Fisher Scientific; Suwanee, Ga.) on a commercial diet (JAZZ-MIX; Fisher Scientific). Flies were reared on a 12:12 photocycle at 24° C. and 60% relative humidity. Mixed-sex adults, less than 1-wk old, were used in bioassays.
(§1) All experimental materials were purchased from Sigma-Aldrich-Fluka (Milwaukee, Wis.) and were of 99% purity or greater. […] All volatile insecticide stocks were prepared at 100 μg/μl in analytical grade acetone. Rather than weigh the highly volatile liquid insecticides (i.e., all compounds except benzothiophene), weight was determined based on the density-volume relationship of each compound. Four serial dilutions were prepared and tested for each insecticide as described previously (Scharf et al., 2006). The insecticide synergists PBO (piperonyl butoxide) and DEF (SSS-tributyl-phosphoro-trithioate) were obtained from Fluka Chemical Co. (Basel, Switzerland) and Mobay Chemical Co. (Kansas City, Mo.). Both synergists were >95% purity. Synergist stocks were prepared at 100 μg/ml in analytical grade acetone.
(§2) Volatility bioassays were conducted exactly as described in a previous report (Scharf et al., 2006). Briefly, bioassays took place in 0.5-l glass jars with metal lids. Mixed-sex flies were isolated from lab colonies and placed in 4-ml dram vials in groups of ten, along with a dried piece of laboratory diet. The dram vials were capped with open-top septum caps that were covered with fine mesh (held in place by non-toxic glue). For bioassays, the assembled dram vials were placed into the 0.5-l jars along with a folded filter paper “tent” (Whatman #1; Vineland, N.J.). The filter paper was treated with either an insecticide dilution or acetone, the jar was sealed with the metal lid, and the bioassay proceeded for 24-hr at room temperature. Mortality was scored based on a complete lack of movement by the flies. Four concentrations plus an acetone control were tested for all insecticides. Between five and ten replicates were performed for each concentration range on each strain-insecticide combination. Synergist bioassays were performed with a slight modification. Synergist stocks were applied to dram vials at 100 μl per vial to provide assay concentrations of 10 μg per vial. […] After treatment, vials were held at an angle in a fume hood and rotated ¼-turn each minute until the acetone evaporated. Flies and diet were added as above and held for 1-hr. Assays were initiated, run, and scored as above.
(§3) Probit analysis was performed using PROC PROBIT in the SAS software package (SAS Institute; Cary, N.C.). If control mortality ever exceeded 10% in a given replicate, that replicate was discarded. Toxicity and synergist ratios at LC50 were compared statistically using the calculation described by Robertson and Preisler (1992). Using this procedure, ratios with 95% confidence intervals were calculated using a spreadsheet-based program. With this calculation, if confidence intervals include 1.0 then ratios are considered non-significant (p>0.05; Robertson and Preisler, 1992).

[2] = system: metabolically resistant Hikone-R strain of Drosophila; type: in vivo; settings: Table 3, Hikone-R, 24 hr
Method: as §1, §2, §3

[3] = system: insecticide-susceptible Canton-S strain of Drosophila; type: in vivo; settings: for Slope ± Std. Error (probit mortality line): Table 3, Canton-S, 24 hr
Method: as §1, §2, §3

Row | Substance | Slope ± Std. Error (probit mortality line) [1] | Slope ± Std. Error (probit mortality line) ([2]; +DEF 10 μg per bioassay vial) | Slope ± Std. Error (probit mortality line) ([2]; +PBO 10 μg per bioassay vial) | Slope ± Std. Error (probit mortality line) ([3]; +DEF 10 μg per bioassay vial) | Slope ± Std. Error (probit mortality line) ([3]; +PBO 10 μg per bioassay vial) | DEF synergism ratio (LC50 with synergist÷LC50 without) ([3]; esterase inhibitor DEF, reduction in toxicity, strain not given, fits Canton-S of Table 3) [fold]
1 | ethyl formate | 6.38 ± 1.91 | 14.17 ± 1.80 | 5.17 ± 1.28 | 1.73 ± 1.35 | 4.74 ± 1.44 | > 12
2 | methyl formate | 9.41 ± 2.14 | 1.91 ± 0.60 | 51.10 | 3.98 ± 1.52 | 49.50 | –
